Measured values taken from paper PMC9352556, “Glycogen synthase kinase homolog Rim11 regulates lipid synthesis through the phosphorylation of Pah1 phosphatidate phosphatase in yeast” (The Journal of Biological Chemistry, 2022).

Experiments:
Pah1 = biological target: T1, Pah1 (Saccharomyces cerevisiae, UniProt P32567); experiment: release of […] from […]PA, Triton X-100/PA mixed micelles; format: biochemical; conditions: unphosphorylated Pah1; surface concentration of PA in micelles; cooperative, n = 3.4; 1 mM MgCl2, pH 7.5, 30 °C; labelled compound
T1 construct: unphosphorylated
T1 sequence (P32567 1-862): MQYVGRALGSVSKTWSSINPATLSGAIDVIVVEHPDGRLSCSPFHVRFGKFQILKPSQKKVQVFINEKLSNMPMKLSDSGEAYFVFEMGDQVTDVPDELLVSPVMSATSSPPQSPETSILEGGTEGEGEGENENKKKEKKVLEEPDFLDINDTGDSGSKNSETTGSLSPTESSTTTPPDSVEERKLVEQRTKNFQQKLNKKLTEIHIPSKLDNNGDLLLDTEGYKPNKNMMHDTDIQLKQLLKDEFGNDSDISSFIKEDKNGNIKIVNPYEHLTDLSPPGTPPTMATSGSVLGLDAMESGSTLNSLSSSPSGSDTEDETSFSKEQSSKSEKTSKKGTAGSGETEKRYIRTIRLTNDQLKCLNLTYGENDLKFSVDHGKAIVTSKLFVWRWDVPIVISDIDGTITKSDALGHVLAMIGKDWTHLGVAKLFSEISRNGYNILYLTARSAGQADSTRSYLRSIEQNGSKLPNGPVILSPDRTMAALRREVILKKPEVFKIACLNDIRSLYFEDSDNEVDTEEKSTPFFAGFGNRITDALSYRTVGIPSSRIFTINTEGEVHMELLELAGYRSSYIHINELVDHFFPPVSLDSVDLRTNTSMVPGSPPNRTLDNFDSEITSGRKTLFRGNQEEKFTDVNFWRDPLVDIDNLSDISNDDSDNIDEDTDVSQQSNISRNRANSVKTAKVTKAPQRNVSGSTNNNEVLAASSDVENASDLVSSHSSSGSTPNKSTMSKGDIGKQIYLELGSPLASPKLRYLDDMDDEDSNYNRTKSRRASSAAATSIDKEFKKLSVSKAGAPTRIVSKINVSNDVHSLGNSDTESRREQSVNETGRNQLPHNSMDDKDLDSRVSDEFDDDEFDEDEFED

purified protein = substrate: Nc1ncnc2c1ncn2[C@@H]1O[C@H](COP(=O)(O)OP(=O)(O)OP(=O)(O)O)[C@@H](O)[C@H]1O; experiment: purified protein; format: biochemical, Saccharomyces cerevisiae; conditions: co-substrate 0.25 μM E. coli-expressed Pah1, 10 mM MgCl2, pH 7.5, 30 °C, labelled compound

Molecule phosphatidate has a Km (Pah1) of 4.2 mol %.

B1: Rim11 (Saccharomyces cerevisiae S288C) (protein)
chain: MNIQSNNSPNLSNNIVSKQVYYAHPPPTIDPNDPVQISFPTTEVVGHGSFGVVFATVIQETNEKVAIKKVLQDKRFKNRELEIMKMLSHINIIDLKYFFYERDSQDEIYLNLILEYMPQSLYQRLRHFVHQRTPMSRLEIKYYMFQLFKSLNYLHHFANVCHRDIKPQNLLVDPETWSLKLCDFGSAKQLKPTEPNVSYICSRYYRAPELIFGATNYTNQIDIWSSGCVMAELLLGQPMFPGESGIDQLVEIIKILGTPSKQEICSMNPNYMEHKFPQIKPIPLSRVFKKEDDQTVEFLADVLKYDPLERFNALQCLCSPYFDELKLDDGKINQITTDLKLLEFDENVELGHLSPDELSSVKKKLYPKSK
notes: purified from S. cerevisiae (pSK001, pYES2); endogenously phosphorylated (Tyr199)
For B1, the Km (purified protein) was 30 µM.
